The text below walks through data of ChEMBL document CHEMBL1201862, “PubChem BioAssay data set” (2004).

Test systems include NCI-H522; 786-0; SR; OVCAR-5; M14; SF-268; SW-620; NCI/ADR-RES; A549; NCI-H23; HCT-15; SN12C; MDA-MB-231; SF-295; Hs-578T; KM12; MDA-N; HCT-116; EKVX; HOP-92.
What all share (experiment): growth of human tumour cells (NCI), 48 h

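Results reflect a 48-hour exposure of cells in 96-well plates to compound at five concentrations. Abbreviation: GI50, concentration required for 50% inhibition of growth.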 Active and inactive are the calls of the source. Rule as the data show it: active = GI50 up to about 1.1 µM and inactive = higher.

For the compound `CC(=O)O[C@H]1C(=O)[C@@]2(C)[C@H]([C@H](OC(=O)c3ccccc3)[C@]3(O)C[C@H](OC(=O)[C@H](O)[C@@H](NC(=O)c4ccccc4)c4ccc5ccccc5c4)C(C)=C1C3(C)C)[C@]1(OC(C)=O)CO[C@@H]1C[C@@H]2O`, the GI50 with NCI-H522 was 0.0524 µM (active); in the assay on 786-0 it was 0.153 µM (active); in the assay on SR, 0.0239 µM (active); in the assay on OVCAR-5 it was 0.153 µM (active); in the assay on M14 it was 0.0466 µM (active); in the assay on SF-268, 0.0239 µM (active). Also, the GI50 in the assay with SW-620 was 0.0306 µM (active); with NCI/ADR-RES, 15.7 µM (inactive); in the assay on A549, 0.0998 µM (active); with NCI-H23, 0.0912 µM (active); in the assay on HCT-15, 1.54 µM; in the assay with SN12C, 0.0681 µM (active). Also, the GI50 is 0.0476 µM (active) in the assay on MDA-MB-231; 0.304 µM (active) with SF-295; 0.0191 µM (active) in the assay with Hs-578T; 0.0512 µM (active) in the assay with KM12; 0.0101 µM (active) in the assay with MDA-N; 0.0266 µM (active) in the assay on HCT-116. Also, the GI50 is 5.35 µM (inactive) with EKVX and 2.25 µM (inactive) with HOP-92.
Take `c1ccc([C@@H]2N[C@@]3(CO[Si](c4ccccc4)(c4ccccc4)c4ccccc4)CC[C@H]4CN[C@@H]2[C@H]43)cc1`: the GI50 with NCI-H522 is 3.43 µM (inactive); in the assay with 786-0, 12.4 µM (inactive); in the assay on SR it was 3.15 µM (inactive); with OVCAR-5 it was 16.1 µM (inactive); with M14, 5.65 µM (inactive); in the assay with SF-268, 4.63 µM (inactive). In addition, the GI50 is 3.25 µM (inactive) with SW-620; 15.4 µM (inactive) in the assay with NCI/ADR-RES; 12.3 µM (inactive) with A549; 15.5 µM (inactive) in the assay on NCI-H23; 3.17 µM with HCT-15; 13.2 µM (inactive) in the assay on SN12C. The GI50 with MDA-MB-231 was 11.8 µM (inactive); in the assay on SF-295, 12.4 µM (inactive); with Hs-578T it was 13.8 µM (inactive); in the assay with KM12, 3.62 µM (inactive); with MDA-N, 3.58 µM (inactive); with HCT-116, 3.23 µM (inactive). Also, the GI50 with EKVX was 15.3 µM (inactive); with HOP-92, 4.61 µM (inactive).
In the case of `COc1ccc(-c2cc(O)c3nc4ccccc4n3c2)cc1`, the GI50 with NCI-H522, with 786-0, with SR, in the assay with M14, in the assay on SF-268 and in the assay with SW-620 was > 100 µM (inactive) in each case. Also, the GI50 in the assay on NCI/ADR-RES was > 100 µM (inactive); with A549, > 100 µM (inactive); in the assay on NCI-H23, > 100 µM (inactive); with HCT-15, more than 100 µM; in the assay on SN12C it was > 100 µM (inactive); in the assay with MDA-MB-231, > 100 µM (inactive). Besides, the GI50 with SF-295 is > 100 µM (inactive); with Hs-578T, 85.7 µM (inactive); in the assay on KM12, > 100 µM (inactive); in the assay on MDA-N it was > 100 µM (inactive); with HCT-116 it was > 100 µM (inactive); in the assay on EKVX it was > 100 µM (inactive). Also, in the assay with HOP-92, the GI50 is > 100 µM (inactive).
`Cc1cn(Cc2cccc(C3=NCCCN3)c2)c(=O)n(Cc2cccc(C3=NCCCN3)c2)c1=O`: the GI50 with NCI-H522, in the assay with 786-0, in the assay with SR, with OVCAR-5, with M14 and in the assay on SF-268 was > 100 µM (inactive) in each case. The GI50 was > 100 µM (inactive) with SW-620; > 100 µM (inactive) in the assay with NCI/ADR-RES; > 100 µM (inactive) with A549; > 100 µM (inactive) in the assay on NCI-H23; more than 100 µM with HCT-15; 25.4 µM (inactive) in the assay with SN12C. The GI50 in the assay with MDA-MB-231, in the assay on SF-295, with Hs-578T, in the assay with KM12, in the assay on MDA-N and in the assay with HCT-116 was > 100 µM (inactive) each time. In addition, the GI50 with EKVX and in the assay with HOP-92 was > 100 µM (inactive) throughout.
In the case of `COc1c2c(c(OC)c3c1c(=O)c1ccccc1n3C)OCO2`, the GI50 is 2.23 µM (inactive) with NCI-H522; 29.2 µM (inactive) with 786-0; 3.69 µM (inactive) with SR; > 72.3 µM (inactive) with OVCAR-5; 9.51 µM (inactive) in the assay on M14; 18.5 µM (inactive) in the assay with SF-268. The GI50 is 4.13 µM (inactive) in the assay on SW-620; 44.9 µM (inactive) with NCI/ADR-RES; 44.5 µM (inactive) in the assay with A549; 10.6 µM (inactive) in the assay on NCI-H23; 26.1 µM with HCT-15; 33.5 µM (inactive) with SN12C. Also, the GI50 in the assay on MDA-MB-231 was 19.3 µM (inactive); with SF-295, 14.1 µM (inactive); in the assay with Hs-578T, 4.79 µM (inactive); in the assay with KM12, 3.25 µM (inactive); in the assay with MDA-N it was 2.08 µM (inactive); in the assay with HCT-116 it was 6.15 µM (inactive). Moreover, the GI50 in the assay with EKVX was 35.4 µM (inactive); in the assay on HOP-92, > 47.8 µM (inactive).
As to `O=[N+]([O-])c1cc(-[n+]2cc([O-])on2)ccc1F`, the GI50 in the assay with NCI-H522 was 9.02 µM (inactive); in the assay on 786-0, 11.7 µM (inactive); in the assay on SR it was 6.24 µM (inactive); in the assay on OVCAR-5 it was 16.5 µM (inactive); with M14, 16.1 µM (inactive); in the assay on SF-268, 14.8 µM (inactive). The GI50 with SW-620 was 18.4 µM (inactive); in the assay on NCI/ADR-RES, 21.2 µM (inactive); with A549 it was 17 µM (inactive); in the assay with NCI-H23 it was 18.2 µM (inactive); in the assay on HCT-15 it was 20.3 µM; with SN12C it was 16.7 µM (inactive). Also, the GI50 in the assay on MDA-MB-231 is 18.7 µM (inactive); in the assay on SF-295, 17.3 µM (inactive); in the assay on Hs-578T, 26.7 µM (inactive); with KM12, 17.2 µM (inactive); with MDA-N, 16.1 µM (inactive); in the assay with HCT-116 it was 15.3 µM (inactive). Also, the GI50 with EKVX was 18 µM (inactive); in the assay on HOP-92, 16.9 µM (inactive).
In the case of `O=c1oc2ccc3ccccc3c2cc1-c1nc2ccccc2o1`, the GI50 in the assay with NCI-H522 was 21.3 µM (inactive); in the assay on 786-0, 18.6 µM (inactive); in the assay with SR, 16.2 µM (inactive); with OVCAR-5, > 100 µM (inactive); with M14, 33.2 µM (inactive); with SF-268, 22.1 µM (inactive). Besides, the GI50 in the assay with SW-620 was 21.8 µM (inactive); with NCI/ADR-RES, 20 µM (inactive); in the assay with A549 it was 28.2 µM (inactive); with NCI-H23, 27.4 µM (inactive); in the assay on HCT-15, 36.6 µM; with SN12C, 22.6 µM (inactive). The GI50 in the assay on MDA-MB-231 was 16.8 µM (inactive); with SF-295 it was 26.2 µM (inactive); in the assay with Hs-578T it was 21.4 µM (inactive); with KM12, 27.3 µM (inactive); in the assay with MDA-N, 23.3 µM (inactive); in the assay on HCT-116 it was 21.7 µM (inactive). The GI50 is 20.6 µM (inactive) with EKVX and 16.4 µM (inactive) in the assay with HOP-92.
Turning to `CC(C)=CCNc1ncnc2c1ncn2CCC(=O)OC(C)(C)C`, the GI50 was > 100 µM (inactive) with NCI-H522; > 100 µM (inactive) with 786-0; 52.2 µM (inactive) in the assay on SR; > 100 µM (inactive) in the assay with OVCAR-5; > 100 µM (inactive) with M14; > 100 µM (inactive) in the assay on SF-268. In addition, the GI50 in the assay with SW-620 was > 100 µM (inactive); with NCI/ADR-RES it was 42.9 µM (inactive); in the assay with A549, > 100 µM (inactive); in the assay on NCI-H23 it was > 100 µM (inactive); with HCT-15, more than 100 µM; with SN12C, > 100 µM (inactive). The GI50 in the assay on MDA-MB-231 is > 100 µM (inactive); in the assay on SF-295 it was > 100 µM (inactive); in the assay with Hs-578T, 12.4 µM (inactive); in the assay with KM12 it was > 100 µM (inactive); with MDA-N it was > 100 µM (inactive); in the assay on HCT-116, > 100 µM (inactive). Also, the GI50 in the assay with HOP-92 is 49.7 µM (inactive).
Take `CCN(CC)c1cc2c3c(c1)CCCN3CCC2`: the GI50 in the assay with NCI-H522, in the assay on 786-0, with SR, in the assay on M14, with SF-268 and in the assay on SW-620 was > 10 µM (inactive) throughout. Also, the GI50 in the assay with NCI/ADR-RES is > 10 µM (inactive); with A549 it was > 10 µM (inactive); in the assay on NCI-H23, > 10 µM (inactive); in the assay on HCT-15 it was more than 10 µM; with SN12C, > 10 µM (inactive); with MDA-MB-231, > 10 µM (inactive). The GI50 with SF-295, in the assay on Hs-578T, in the assay with KM12, in the assay with MDA-N, with HCT-116 and in the assay on EKVX was > 10 µM (inactive) throughout. The GI50 in the assay on HOP-92 is > 10 µM (inactive).
With `O=S(=O)(O)CCCC1S(=O)(=O)OCCOS1(=O)=O`, the GI50 in the assay with NCI-H522, in the assay with 786-0, in the assay with SR, in the assay with OVCAR-5, in the assay on M14 and in the assay with SF-268 was > 100 µM (inactive) in each case. The GI50 with SW-620 was > 100 µM (inactive); in the assay on NCI/ADR-RES, > 100 µM (inactive); in the assay with NCI-H23, > 100 µM (inactive); in the assay with HCT-15 it was more than 100 µM; with MDA-MB-231, > 100 µM (inactive); in the assay on SF-295 it was > 100 µM (inactive). Moreover, the GI50 in the assay with Hs-578T, in the assay on KM12, in the assay on MDA-N, in the assay on HCT-116, in the assay with EKVX and with HOP-92 was > 100 µM (inactive) in each case.
